Results published in PubChem BioAssay AID488770 (The Scripps Research Institute Molecular Screening Center, 2010).
Activity calls are given as the source filed them.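 How the source made its calls: active means IC50 at or below 10 µM; inactive means IC50 above 10 µM.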

Molecular target: KH domain-containing RNA-binding protein QKI (Mus musculus) (UniProt Q9QYS9)
Assay: blockers of quaking interaction with RNA – biochemical, fluorescence polarization, mouse QKI, powder samples, gld-1 inhibitor project, dose response (AID 488770)
Conditions: 1536-well

Sequence of KH domain-containing RNA-binding protein QKI (Mus musculus) (Q9QYS9 whole entry, looked up, the tested form may be a part): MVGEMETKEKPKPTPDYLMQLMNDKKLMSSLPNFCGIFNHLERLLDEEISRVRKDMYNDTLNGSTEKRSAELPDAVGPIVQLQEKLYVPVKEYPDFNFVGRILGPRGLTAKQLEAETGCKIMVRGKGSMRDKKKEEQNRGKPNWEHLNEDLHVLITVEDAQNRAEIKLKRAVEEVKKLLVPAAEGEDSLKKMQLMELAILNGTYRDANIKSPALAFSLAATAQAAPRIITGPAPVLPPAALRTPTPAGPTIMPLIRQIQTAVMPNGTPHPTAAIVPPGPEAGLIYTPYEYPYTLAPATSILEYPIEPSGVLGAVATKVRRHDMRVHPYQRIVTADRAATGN

Going from CCN(CC)S(=O)(=O)c1ccc(N2CCCC2)c(NS(=O)(=O)c2ccc(F)cc2)c1 to Cc1ccc(S(=O)(=O)Nc2cc3c(C(=O)Nc4ccccc4)c(C)oc3c3ccccc23)cc1, the IC50 falls from 1620 nM to 262 nM (6.2-fold). The second is the more potent here.

Nc1ccc(O)c2c1C(=O)c1ccccc1C2=O and Nc1c(O)ccc2c1C(=O)c1ccccc1C2=O are within 1.5-fold of each other in IC50: 2280 nM for the first, 2530 nM for the second.

O=C1C2=C(SCCS2)C(=O)N1CCCO and CCCCn1c(=O)[nH]c2nc3cc(NC(C)=O)ccc3nc2c1=O are within 1.5-fold of each other in IC50: 2240 nM for the first, 1590 nM for the second.

Going from O=c1[nH]c2cc3ccccc3cc2nc1C(F)(F)F to O=C(CN1C(=O)NC2(CCCCC2)C1=O)Oc1ccc2c(C(F)(F)F)cc(=O)oc2c1, the IC50 rises from 1170 nM to 2130 nM (1.8-fold).

Compared with Cc1ccc(S(=O)(=O)Nc2cc3c(C(=O)Nc4ccccc4)c(C)oc3c3ccccc23)c(C)c1, COc1ccc(/C=C(\CC(=O)O)c2nc3ccccc3s2)cc1O is 2.7-fold lower in IC50: 419 nM for the first, 155 nM for the second.

With CC1=CC(=O)c2c(O)ccc(O)c2C1=O the IC50 was 5620 nM.

CCOC(=O)c1c(C)oc2c1cc(NS(=O)(=O)c1ccc(C)cc1)c1ccccc12 was tested, and the IC50 was > 59600 nM (inactive).
In the case of COc1ccc(C=Nc2c(-c3ccco3)nc3ccccn23)cc1OC, the IC50 is reported as “inactive”.
Nc1ccc2nonc2c1[N+](=O)[O-] was tested, and the IC50 was > 59600 nM (inactive).
O=c1[nH]c(=O)c2nc3ccccc3nc2[nH]1 was tested, and the IC50 was “inactive”.
